Reference: paper PMC8847575, “HSL1 and BAM1/2 impact epidermal cell development by sensing distinct signaling peptides” (Nature Communications, 2022)
Ends that are not written are not given here.

Key:
HSL1 ectodomain = molecular target: T1, HSL1 ectodomain (Arabidopsis thaliana, UniProt Q9SGP2); assay: ITC, peptide titrated into isolated HSL1 ectodomain; conditions: peptide (syringe) into HSL1 ectodomain (cell), 25 °C, 20 mM sodium citrate pH 5.0, 150 mM NaCl, N fitted to 1, mean ± SD of at least two independent experiments, n.d = no binding detected
T1 construct: HSL1 (residues 17-618, AT1G28440); azurocidin or Drosophila BIP signal peptide (secretion signal) (N); made in house; host or cells: Trichoplusia ni Tnao38 insect cells (baculovirus)
T1 sequence (Q9SGP2 17-618): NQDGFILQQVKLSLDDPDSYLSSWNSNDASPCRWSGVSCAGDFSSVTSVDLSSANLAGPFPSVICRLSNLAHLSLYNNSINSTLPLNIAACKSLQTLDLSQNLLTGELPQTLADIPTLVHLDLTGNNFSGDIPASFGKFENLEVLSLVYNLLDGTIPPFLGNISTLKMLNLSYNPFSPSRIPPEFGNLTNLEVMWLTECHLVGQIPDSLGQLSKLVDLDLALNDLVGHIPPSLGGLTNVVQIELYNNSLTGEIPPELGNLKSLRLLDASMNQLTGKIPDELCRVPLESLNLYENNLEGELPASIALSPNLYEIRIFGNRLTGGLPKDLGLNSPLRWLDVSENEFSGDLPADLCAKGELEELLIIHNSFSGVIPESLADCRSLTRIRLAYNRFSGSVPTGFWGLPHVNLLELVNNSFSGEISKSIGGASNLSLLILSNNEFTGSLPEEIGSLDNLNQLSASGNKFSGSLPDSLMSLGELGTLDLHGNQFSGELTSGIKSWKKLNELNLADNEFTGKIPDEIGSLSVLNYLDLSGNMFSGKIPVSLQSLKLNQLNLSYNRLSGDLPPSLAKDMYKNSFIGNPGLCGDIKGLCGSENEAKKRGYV
Description: (§1) All genes used for protein expression in Trichoplusia ni Tnao38 cells[46] were codon optimized and cloned into a modified pFastBac vector (Geneva Biotech) providing an azurocidin[47] or Drosophila BIP signal peptide, a TEV (tobacco etch virus protease) cleavage site and a Strep-9xHis tandem affinity tag at their carboxy terminus. The genes used are coding for the Arabidopsis ectodomains of HSL1 (residues 17-618, AT1G28440), HAE (residues 20-620, AT4G28490) SERK1 (residues 24–213, AT1G71830), and BAM1 (residues 20–637, AT5G65700). To perform Grating-coupled interferometry (GCI) experiments, HSL1 was fused to a non-cleavable Avi-tag[49],[50]. […] After every expression round, secretion of our proteins was detected using an anti-His-HRP conjugated antibody from Roche (Ref:11965085001) in a 1:2000 dilution. […] Proteins were analyzed for purity and structural integrity by SDS-PAGE.
(§2) Experiments were performed at 25 °C using a MicroCal PEAQ-ITC (Malvern Instruments) with a 200 µL standard cell and a 40 μL titration syringe. […] Molar protein concentrations for HSL1, BAM1, and SERK1 were calculated using their molar extinction coefficient and a molecular weight of 74,896 and 27,551 Da, respectively as previously determined. […] Experiments were done in duplicates or triplicates, otherwise specified, and data were analyzed using the MicroCal PEAQ-ITC Analysis Software provided by the manufacturer. […]

HSL1-SERK1 complex = molecular target: T2, HSL1-SERK1 complex (Arabidopsis thaliana, UniProt Q94AG2+Q9SGP2); assay: ITC, SERK1 titrated into HSL1 plus peptide (ternary complex formation); conditions: SERK1 (syringe) into HSL1 + indicated peptide (cell), 25 °C, 20 mM sodium citrate pH 5.0, 150 mM NaCl, N fitted to 1, mean ± SD of at least two independent experiments, n.d = no binding detected
T2 construct: HSL1 (residues 17-618, AT1G28440); made in house; host or cells: Trichoplusia ni Tnao38 insect cells (baculovirus)
T2 sequence (Q9SGP2 17-618): T1 sequence (Q9SGP2 17-618)
T2 sequence (Q94AG2 24-213 partner limits assumed): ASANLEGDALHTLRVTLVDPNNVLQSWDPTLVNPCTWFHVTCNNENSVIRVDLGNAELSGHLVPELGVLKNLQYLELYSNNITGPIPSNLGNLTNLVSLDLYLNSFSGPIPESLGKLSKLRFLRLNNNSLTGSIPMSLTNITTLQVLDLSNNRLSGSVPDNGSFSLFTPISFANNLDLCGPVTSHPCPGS
Description: as §1, §2

Kd (dissociation constant), peptide vs HSL1 (HSL1 ectodomain): could not detect binding
Kd (dissociation constant), SERK1 vs HSL1 + peptide (HSL1-SERK1 complex): no biding was detected
Sequence: RLVPSGPNPLHH [CLE13]
